According to patent US11339128B2 (Firmenich Incorporated, priority 2014, dated 2022):

Molecular target: T1, T1R2/T1R3 taste receptor (Homo sapiens, UniProt Q7RTX0+Q8TE23)
T1 sequence (Q8TE23 20-839): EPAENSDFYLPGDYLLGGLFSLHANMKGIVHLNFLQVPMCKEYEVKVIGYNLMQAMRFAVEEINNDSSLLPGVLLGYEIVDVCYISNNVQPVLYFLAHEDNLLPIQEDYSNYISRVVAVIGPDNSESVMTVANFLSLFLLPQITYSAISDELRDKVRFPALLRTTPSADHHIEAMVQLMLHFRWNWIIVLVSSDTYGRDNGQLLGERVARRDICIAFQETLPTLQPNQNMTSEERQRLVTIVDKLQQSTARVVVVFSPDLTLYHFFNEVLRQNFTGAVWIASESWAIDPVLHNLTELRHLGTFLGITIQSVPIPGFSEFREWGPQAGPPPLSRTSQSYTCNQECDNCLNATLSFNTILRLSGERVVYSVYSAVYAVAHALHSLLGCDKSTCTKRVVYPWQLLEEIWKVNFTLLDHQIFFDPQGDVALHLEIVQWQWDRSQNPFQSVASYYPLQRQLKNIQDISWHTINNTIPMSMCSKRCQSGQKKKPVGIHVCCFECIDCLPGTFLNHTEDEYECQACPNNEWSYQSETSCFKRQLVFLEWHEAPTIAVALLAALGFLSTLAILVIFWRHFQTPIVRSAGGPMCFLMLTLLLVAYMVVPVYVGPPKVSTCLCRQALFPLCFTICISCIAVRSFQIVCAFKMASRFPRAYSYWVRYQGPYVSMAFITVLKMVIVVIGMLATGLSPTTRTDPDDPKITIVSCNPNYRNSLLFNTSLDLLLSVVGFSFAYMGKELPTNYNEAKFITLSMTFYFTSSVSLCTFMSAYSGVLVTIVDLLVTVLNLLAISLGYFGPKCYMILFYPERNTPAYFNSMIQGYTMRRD
T1 sequence (Q7RTX0 21-852): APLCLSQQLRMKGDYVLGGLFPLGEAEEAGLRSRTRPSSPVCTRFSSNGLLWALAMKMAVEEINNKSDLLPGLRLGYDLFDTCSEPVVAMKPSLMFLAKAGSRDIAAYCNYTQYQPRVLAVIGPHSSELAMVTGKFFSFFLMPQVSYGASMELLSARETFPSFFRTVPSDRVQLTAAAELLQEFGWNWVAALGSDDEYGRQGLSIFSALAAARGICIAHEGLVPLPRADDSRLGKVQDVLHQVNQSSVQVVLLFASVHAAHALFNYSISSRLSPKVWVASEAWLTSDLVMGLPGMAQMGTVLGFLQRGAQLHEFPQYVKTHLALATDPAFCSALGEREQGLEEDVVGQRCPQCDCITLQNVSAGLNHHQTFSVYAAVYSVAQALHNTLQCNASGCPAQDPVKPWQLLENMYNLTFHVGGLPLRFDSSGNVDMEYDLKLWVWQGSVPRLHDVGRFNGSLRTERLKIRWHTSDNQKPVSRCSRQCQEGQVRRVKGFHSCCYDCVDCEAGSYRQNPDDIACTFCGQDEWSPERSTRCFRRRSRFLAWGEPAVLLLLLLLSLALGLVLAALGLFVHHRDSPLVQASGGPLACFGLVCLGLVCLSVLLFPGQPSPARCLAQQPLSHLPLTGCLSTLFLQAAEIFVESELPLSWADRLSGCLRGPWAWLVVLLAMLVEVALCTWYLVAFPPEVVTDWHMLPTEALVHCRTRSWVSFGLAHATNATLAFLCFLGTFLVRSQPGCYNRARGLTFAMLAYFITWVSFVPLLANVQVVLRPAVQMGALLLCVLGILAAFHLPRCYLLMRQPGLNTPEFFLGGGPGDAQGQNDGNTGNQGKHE
Assay: Receptor-based assay: sweetener EC50 enhancement ratio with and without test compound
Assay type: cell-based
Conditions: for Sucrose Enhancement EC50 Ratio: sweetener sucrose; for Fructose Enhancement EC50 Ratio: sweetener fructose; for Sucralose Enhancement EC50 Ratio: sweetener sucralose
Procedure: Potencies (EC50 values) for the sweeteners sucrose, sucralose, and fructose were measured against the T1R2/T1R3 taste receptor. EC50 was determined using the sweetener alone and in the presence of 1 μM, 3 μM, 10 μM, or 50 μM of test compound. EC50 ratios were calculated by the ratio of potency with and without the test compound. An “A” value indicates an enhancement ratio of greater than 1 and less than 10. A “B” value indicates an enhancement ratio from 10 to 20. A “C” value indicates an enhancement ratio greater than 20.

SMILES	Sucrose Enhancement EC50 Ratio (1 μM test compound)	Sucrose Enhancement EC50 Ratio (3 μM test compound)	Fructose Enhancement EC50 Ratio (10 μM test compound)	Sucrose Enhancement EC50 Ratio (10 μM test compound)	Sucralose Enhancement EC50 Ratio (3 μM test compound)	Sucralose Enhancement EC50 Ratio (10 μM test compound)	Fructose Enhancement EC50 Ratio (50 μM test compound)
Cc1nc2cccc(O[C@H]3CC[C@H](NC(=O)COCCO)CC3)c2c(N)c1C(=O)O [Compound 334]	A (an enhancement ratio of greater than 1 and less than 10)	A (an enhancement ratio of greater than 1 and less than 10)	A (an enhancement ratio of greater than 1 and less than 10)	C (an enhancement ratio greater than 20)	–	–	–
CCCCOCC(=O)N[C@H]1CC[C@H](Oc2cccc3nc(C)c(C(=O)O)c(N)c23)CC1 [Compound 335]	B (an enhancement ratio from 10 to 20)	C (an enhancement ratio greater than 20)	–	–	C (an enhancement ratio greater than 20)	–	–
COCCOCC(=O)N[C@H]1CC[C@H](Oc2cccc3nc(C)c(C(=O)O)c(N)c23)CC1 [Compound 336]	A (an enhancement ratio of greater than 1 and less than 10)	C (an enhancement ratio greater than 20)	–	–	B (an enhancement ratio from 10 to 20)	–	–
Cc1nc2cccc(O[C@H]3CC[C@H](NC(=O)COCC4CCCCC4)CC3)c2c(N)c1C(=O)O [Compound 337]	A (an enhancement ratio of greater than 1 and less than 10)	C (an enhancement ratio greater than 20)	–	–	–	–	–
Cc1nc2cccc(O[C@H]3CC[C@H](NC(=O)COCC4CCCC4)CC3)c2c(N)c1C(=O)O [Compound 338]	A (an enhancement ratio of greater than 1 and less than 10)	–	–	–	–	–	–
Cc1nc2cccc(O[C@H]3CC[C@H](NC(=O)COCC4CCOCC4)CC3)c2c(N)c1C(=O)O [Compound 339]	A (an enhancement ratio of greater than 1 and less than 10)	B (an enhancement ratio from 10 to 20)	–	–	–	–	–
Cc1nc2cccc(O[C@H]3CC[C@H](NC(=O)COCCC(C)C)CC3)c2c(N)c1C(=O)O [Compound 340]	B (an enhancement ratio from 10 to 20)	B (an enhancement ratio from 10 to 20)	–	–	A (an enhancement ratio of greater than 1 and less than 10)	–	–
CCC(CC)OCC(=O)N[C@H]1CC[C@H](Oc2cccc3nc(C)c(C(=O)O)c(N)c23)CC1 [Compound 341]	A (an enhancement ratio of greater than 1 and less than 10)	B (an enhancement ratio from 10 to 20)	–	–	A (an enhancement ratio of greater than 1 and less than 10)	–	–
CCNCC(=O)N[C@H]1CC[C@H](Oc2cccc3nc(C)c(C(=O)O)c(N)c23)CC1.Cl [Compound 400, 4-Amino-5-((trans-4-(2-(ethylamino)acetamido)cyclohexyl)oxy)-2-methyl quinolone-3-carboxylic acid (HCl)]	A (an enhancement ratio of greater than 1 and less than 10)	A (an enhancement ratio of greater than 1 and less than 10)	A (an enhancement ratio of greater than 1 and less than 10)	A (an enhancement ratio of greater than 1 and less than 10)	–	A (an enhancement ratio of greater than 1 and less than 10)	A (an enhancement ratio of greater than 1 and less than 10)
Cc1nc2cccc(O[C@H]3CC[C@H](NC(=O)CN)CC3)c2c(N)c1C(=O)O [Compound 401]	A (an enhancement ratio of greater than 1 and less than 10)	A (an enhancement ratio of greater than 1 and less than 10)	A (an enhancement ratio of greater than 1 and less than 10)	A (an enhancement ratio of greater than 1 and less than 10)	–	A (an enhancement ratio of greater than 1 and less than 10)	–
CNCC(=O)N[C@H]1CC[C@H](Oc2cccc3nc(C)c(C(=O)O)c(N)c23)CC1 [Compound 402]	A (an enhancement ratio of greater than 1 and less than 10)	A (an enhancement ratio of greater than 1 and less than 10)	A (an enhancement ratio of greater than 1 and less than 10)	B (an enhancement ratio from 10 to 20)	–	A (an enhancement ratio of greater than 1 and less than 10)	–
CN[C@@H](C)C(=O)N[C@H]1CC[C@H](Oc2cccc3nc(C)c(C(=O)O)c(N)c23)CC1.Cl [Compound 500]	A (an enhancement ratio of greater than 1 and less than 10)	A (an enhancement ratio of greater than 1 and less than 10)	–	A (an enhancement ratio of greater than 1 and less than 10)	–	A (an enhancement ratio of greater than 1 and less than 10)	A (an enhancement ratio of greater than 1 and less than 10)
CNC(C)(C)C(=O)N[C@H]1CC[C@H](Oc2cccc3nc(C)c(C(=O)O)c(N)c23)CC1 [Compound 501]	A (an enhancement ratio of greater than 1 and less than 10)	A (an enhancement ratio of greater than 1 and less than 10)	A (an enhancement ratio of greater than 1 and less than 10)	A (an enhancement ratio of greater than 1 and less than 10)	–	B (an enhancement ratio from 10 to 20)	A (an enhancement ratio of greater than 1 and less than 10)
CN[C@@H](CO)C(=O)N[C@H]1CC[C@H](Oc2cccc3nc(C)c(C(=O)O)c(N)c23)CC1 [Compound 502]	A (an enhancement ratio of greater than 1 and less than 10)	A (an enhancement ratio of greater than 1 and less than 10)	A (an enhancement ratio of greater than 1 and less than 10)	A (an enhancement ratio of greater than 1 and less than 10)	–	A (an enhancement ratio of greater than 1 and less than 10)	A (an enhancement ratio of greater than 1 and less than 10)
CN[C@H](C(=O)N[C@H]1CC[C@H](Oc2cccc3nc(C)c(C(=O)O)c(N)c23)CC1)C(C)C [Compound 503]	A (an enhancement ratio of greater than 1 and less than 10)	A (an enhancement ratio of greater than 1 and less than 10)	A (an enhancement ratio of greater than 1 and less than 10)	A (an enhancement ratio of greater than 1 and less than 10)	–	B (an enhancement ratio from 10 to 20)	A (an enhancement ratio of greater than 1 and less than 10)
Cc1nc2cccc(O[C@H]3CC[C@H](NC(=O)[C@@H]4CCCN4)CC3)c2c(N)c1C(=O)O [Compound 504]	A (an enhancement ratio of greater than 1 and less than 10)	A (an enhancement ratio of greater than 1 and less than 10)	–	–	–	–	–
